Experiment: GSNO stability as a function of pH
Format: physicochemical
Details: alkaline conditions
Method: The stability of the formulations was tested via UV/Vis analysis and/or via the electrochemical NOA.

N[C@@H](CCC(=O)N[C@@H](CSN=O)C(=O)NCC(=O)O)C(=O)O [GSNO, S-nitrosoglutathione]
pH above which GSNO instability and hence NO generation begins to increase: above 8.5

Reference: US12667686B2, “Nitric oxide generating systems” (NOTA Laboratories, LLC, priority 2019, dated 2026)
